Experimental data published in patent publication US11965886B2, “Method of immobilizing a cell on a support using compounds comprising a polyethylene glycol moiety” (Roche Diagnostics Operations, Inc., priority 2013, dated 2024).
Values joined by “and” are separate entries in the source; they are usually repeats but may differ in a detail not shown here. Identical values can stand only once. Like-named read-outs stand apart in the source and are kept apart here.

Columns and labels:
[1] = tested on: WBC; experiment: WBC recovery rate after centrifugation (cell stabilization, Example 5); assay type: cell-based; settings: Centrifugation: 20 min, 300×g; 10 min, 1 h, 2 h incubation
Description: A) WBC Recovery Rate after Centrifugation and Cell Immobilization Using Different Molecules
Centrifugation characteristics: 10 min, 300×g.
B) WBC Recovery Rate after Centrifugation Using Different Compounds—Different Points of Time
Centrifugation characteristics: 10 min, 300×g. A: Choleseryl-TEG-Cholesteryl-TEG-(SpacerC18)7-Fluos-Biotin-TEG.
C) WBC Recovery Rate after Centrifugation—Different Experimenters
Centrifugation characteristics: 10 min, 300×g. Molecule: Cholesteryl-TEG-Cholesteryl-TEG-(SpacerC18)7-Fluos-Biotin-TEG.
D) WBC Recovery Rate after Centrifugation—Different Points of Time and Centrifugation Settings
Centrifugation characteristics: 20 min, 300×g.

[2] = tested on: WBC; experiment: as above; assay type: cell-based; settings: Centrifugation: 20 min, 500×g
[3] = tested on: white blood cells (WBCs)
Description: In particular, the performance of a single cholesterol-molecule and different dual-linker molecules (i.e. containing two hydrophobic moieties) was tested. In detail, immobilization of white blood cells (WBCs) on a Streptavidin-coated surface using different linker molecules was tested on a 12-well plate: 300 000 WBCs/well. This was followed by the measurement of the cell recovery rate after immobilization and washing of the cells using the Cellavista instrument (10× Nuclei Operator s9s5).

[4] = tested on: WBCs; experiment: Immobilization of cells: recovery rate of cells on SA (streptavidin) plate or untreated plate (Example 3); assay type: cell-based
Description: The following applies for modular description of the compounds below: X=hydrophobic moiety, […]=fluorescein In the following experiment, the recovery rate of cells was determined.

[5] = tested on: MDA-MB468; experiment: Labelling of cells using compounds (staining/uptake); assay type: cell-based
Text: (§1) 2. Labelling of Cells Using Compounds Useful in Methods of the Invention

[6] = tested on: COS 7; experiment: as above; assay type: cell-based
Text: as §1

[7] = tested on: U937; experiment: as above; assay type: cell-based
Text: as §1

[8] = tested on: CHO; experiment: as above; assay type: cell-based
Text: as §1

[9] = tested on: Hela; experiment: as above; assay type: cell-based
Text: as §1

[10] = tested on: Jurkats; experiment: as above; assay type: cell-based
Text: as §1

[11] = tested on: NIH 3T3; experiment: as above; assay type: cell-based
Text: as §1

[12] = tested on: Epithelial cells; experiment: as above; assay type: cell-based
Text: as §1

[13] = tested on: MDAs in WBCs; experiment: Immobilization of cells: recovery rate of MDAs spiked in WBCs on SA-plate (Example 3); assay type: cell-based
Description: The following applies for modular description of the compounds below:
X=hydrophobic moiety, Y=PEG2000, Z=Biotin-TEG, F=Fluos=fluorescein
In the following experiment, the recovery rate of cells was determined.

[14] = tested on: WBCs; experiment: Labelling of cells using compounds (staining/uptake); assay type: cell-based
Text: as §1

[15] = Sample 1, first block (concentration not given), 300 000 WBCs/well
[16] = Sample 2, compound concentration: 100 pmol/10e6 WBCs
[17] = Sample 2, compound concentration: 1 nmol/10e6 WBCs

“3′-(Myristic acid)2-PEG2000-dT-Biotin-TEG-5′ INVERS [compound 1255]” was tested, and the “WBC recovery rate after centrifugation, performance ranking” value (shortened to “WBC recovery rate after centrifugation”) [1] was “followed by compound 1255 and 1254” and the “WBC recovery rate after centrifugation” value [2] was “followed by molecule 1255 and 1254”.

With “5′-(Cholesteryl-TEG)2-Spacer C18-Fluos-Biotin_TEG-3′ INVERS [29.891254]” the “WBC recovery rate after centrifugation” value [1] was “followed by compound 1255 and 1254”, the “WBC recovery rate after centrifugation” value [2] was “followed by molecule 1255 and 1254” and the Recovery Rate [3, 15] was 57.63%. The “cells counted per well” value [3, 15] was 157660 and 190148 and 170850, the Recovery Rate ([3]; Sample 1, compound concentration: 1 nmol/10e6 WBCs) was 82.19% and the “cells counted per well” value ([3]; Sample 1, compound concentration: 1 nmol/10e6 WBCs, 300 000 WBCs/well) was 244649 and 234262 and 260760. The “Mean (cells counted per well)” value [3, 16] was 197067.00, the Recovery Rate [3, 16] was 65.69% and the “cells counted per well” value ([3]; Sample 2, compound concentration: 100 pmol/10e6 WBCs, 300 000 WBCs/well) was 205917 and 185100 and 200184. For the same molecule, the “Mean (cells counted per well)” value [3, 17] was 245376.00, the Recovery Rate [3, 17] was 81.79% and the “cells counted per well” value ([3]; Sample 2, compound concentration: 1 nmol/10e6 WBCs, 300 000 WBCs/well) was 247428 and 244396 and 244304. The “Recovery Rate” value ([4]; 10 pmol/10e6 cells) was 40.30%, the “Recovery Rate” value ([4]; 100 pmol/10e6 cells) was 64.60% and 57.63% and 65.69% and 70.07% and 81.28% and the “Recovery Rate” value ([4]; 1 nmol/10e6 cells) was 92.50% and 82.19% and 81.79% and 74.68%. The “Recovery Rate” value ([4]; 10 nmol/10e6 cells) was 83.60%.

“5′-CholesterylTEG-CholesterylTEG-(SpacerC18)7-dT(Determ. of concentration)-BiotinTEG-3′ [compound 1234]” was tested, and the “WBC recovery rate after centrifugation” value [1] was “best performance”, the “WBC recovery rate after centrifugation” value [2] was “best performance” and the “Recovery Rate” value ([4]; 10 pmol/10e6 cells) was 9.6%. The “Recovery Rate” value ([4]; 100 pmol/10e6 cells) was 18.8%, the “Recovery Rate” value ([4]; 300 pmol/10e6 cells) was 26.8% and the “Recovery Rate” value ([4]; 500 pmol/10e6 cells) was 24.9%. The “Recovery Rate” value ([4]; 10 nmol/10e6 cells) was 99.7%, the “Recovery Rate” value ([4]; WBCs, 350 pmol/10e6 cells, 0.000003% Tween21) was 13.0% and 25.0% and the “Recovery Rate” value ([4]; WBCs, 350 pmol/10e6 cells, 0.00001% Tween20) was 14.0% and 23.0%. The “Recovery Rate” value ([4]; WBCs, 350 pmol/10e6 cells, 0.00003% Tween20) was 12.0% and 20.0%, the “Recovery Rate” value ([4]; WBCs, 350 pmol/10e6 cells, 0.00003% Tween22) was 22.0% and 36.0% and the “Recovery Rate” value ([4]; WBCs, 350 pmol/10e6 cells, 0.0001% Tween21) was 22.0% and 28.0%. The “Recovery Rate” value ([4]; WBCs, 350 pmol/10e6 cells, 0.0003% Tween20) was 12.0% and 18.0%, the “Recovery Rate” value ([4]; WBCs, 350 pmol/10e6 cells, 0.001% Tween20) was 10.0% and 15.0% and the “Recovery Rate” value ([4]; WBCs, 350 pmol/10e6 cells, 1:1 diluted) was 22.0% and 25.0%. The “Recovery Rate” value ([4]; WBCs, 350 pmol/10e6 cells, US + 10′ 98° C.) was 27.0% and 23.0%, the “Recovery Rate” value ([4]; WBCs, 350 pmol/10e6 cells, not evaporated, VIVA Spin) was 18.0% and 19.0% and the “Recovery Rate” value ([4]; WBCs, 350 pmol/10e6 cells, untreated) was 17.0% and 13.0%. The “Recovery Rate” value ([4]; WBCs, 1000 pmol/10e6 cells) was 35.4% and the “Recovery Rate” value ([4]; WBCs, 1000 pmol/10e6 cells, not evaporated, VIVA Spin) was 42.0% and 45.0%.

In the case of “5′-CholesterylTEG-CholesterylTEG-PEG2000-Fluos-3′ [29.891133]”, the “Labelling (staining/uptake) of cells” value [5] was “✓”, the “Labelling (staining/uptake) of cells” value [6] was “✓” and the “Labelling (staining/uptake) of cells” value [7] was “✓”. The “Labelling (staining/uptake) of cells” value [8] was “✓”, the “Labelling (staining/uptake) of cells” value [9] was “✓” and the “Labelling (staining/uptake) of cells” value [10] was “✓”. The “Labelling (staining/uptake) of cells” value [11] was “✓” and the “Labelling (staining/uptake) of cells” value [12] was “✓”.

In the case of “5′-CholesterylTEG-CholesterylTEG-PEG2000-Fluos-BiotinTEG-3′ [29.891180]”, the “Recovery rate treated cells (SA-plate)” value ([13]; 10e4 MDAs in WBCs) was 99.0%, the “Recovery rate treated cells (SA-plate)” value ([13]; 20e3 MDAs in WBCs) was 102.0% and the “Recovery rate treated cells (SA-plate)” value ([13]; 40e3 MDAs in WBCs) was 102.0%. For the same molecule, the “Recovery rate treated cells (SA-plate)” value ([4]; 2.16 μg/2 × 10e6 WBCs) was 78.6%, the “Recovery rate treated cells (SA-plate)” value ([4]; 21.6 μg/2 × 10e6 WBCs) was 68.6% and the “Recovery rate treated cells (SA-plate)” value ([4]; 216 μg/2 × 10e6 WBCs) was 50.1%. For the same molecule, the “Recovery rate treated cells (SA-plate)” value ([4]; 5 × 10e5 WBCs (MDA spiking experiment)) was 70.0% and 70.8%, the “Recovery rate treated cells (SA-plate)” value ([4]; 10e6 WBCs (MDA spiking experiment)) was 69.4% and the “Recovery rate treated cells (SA-plate)” value ([4]; 200 μl Zellsus.) was 67.6% and 71.9%. The “Recovery rate treated cells (SA-plate)” value ([4]; 400 μl Zellsus.) was 78.4% and 84.1%, the “Recovery rate treated cells (SA-plate)” value ([4]; 10 min 4° C.) was 81.6% and the “Recovery rate treated cells (SA-plate)” value ([4]; 10 min RT) was 88.3%. For the same molecule, the “Recovery rate treated cells (SA-plate)” value ([4]; 800 μl Zellsus.) was 81.1% and 86.4%, the “Recovery rate treated cells (SA-plate)” value ([4]; 60 min 4° C.) was 81.7% and the “Recovery rate treated cells (SA-plate)” value ([4]; 60 min RT) was 85.5%. For the same molecule, the “Recovery rate treated cells (untreated-plate)” value ([4]; cells treated with compound, untreated plate) was 56.7%.

With `CCCCCCCCCCCCCCCCCCN1C(=CC=CC2=[N+](CCCCCCCCCCCCCCCCCC)c3ccccc3C2(C)C)C(C)(C)c2ccccc21.[O-][Cl+3]([O-])([O-])[O-]` [1,1′-Dioctadecyl-3,3,3′,3′-tetramethylindocarbocyanin perchlorate] the “Labelling (staining/uptake) of cells” value [5] was “✓”, the “Labelling (staining/uptake) of cells” value [6] was “✓” and the “Labelling (staining/uptake) of cells” value [14] was “✓ not all”. The “Labelling (staining/uptake) of cells” value [7] was “✓”, the “Labelling (staining/uptake) of cells” value [8] was “✓” and the “Labelling (staining/uptake) of cells” value [9] was “✓”. For the same molecule, the “Labelling (staining/uptake) of cells” value [10] was “✓”, the “Labelling (staining/uptake) of cells” value [11] was “✓*” and the “Labelling (staining/uptake) of cells” value [12] was “✓”.

In the case of `CCCCC/C=C\C/C=C\CCCCCCCCN1C(=CC=CC2=[N+](CCCCCCCC/C=C\C/C=C\CCCCC)c3ccccc3C2(C)C)C(C)(C)c2ccccc21.[O-][Cl+3]([O-])([O-])[O-]` [Linol, 1,1′-dilinoleyl-3,3,3′,3′-tetramethylindocarbocyanine perchlorate], the “Labelling (staining/uptake) of cells” value [5] was “✓”, the “Labelling (staining/uptake) of cells” value [6] was “✓” and the “Labelling (staining/uptake) of cells” value [7] was “✓”. For the same molecule, the “Labelling (staining/uptake) of cells” value [8] was “✓”, the “Labelling (staining/uptake) of cells” value [9] was “✓” and the “Labelling (staining/uptake) of cells” value [10] was “✓”. For the same molecule, the “Labelling (staining/uptake) of cells” value [11] was “✓” and the “Labelling (staining/uptake) of cells” value [12] was “✓”.

With `CCCCCCCCCCCCCCCCCCCCCC[N+]1=C(/C=C/C=C2/N(CCCCCCCCCCCCCC)c3ccccc3C2(C)C)C(C)(C)c2ccccc21.[I-]` [PKH26] the “Labelling (staining/uptake) of cells” value [5] was “✓”, the “Labelling (staining/uptake) of cells” value [6] was “✓” and the “Labelling (staining/uptake) of cells” value [7] was “✓”. The “Labelling (staining/uptake) of cells” value [8] was “✓”, the “Labelling (staining/uptake) of cells” value [9] was “✓*” and the “Labelling (staining/uptake) of cells” value [10] was “✓”. The “Labelling (staining/uptake) of cells” value [11] was “✓” and the “Labelling (staining/uptake) of cells” value [12] was “✓ not all”.

`CCCCCCCCCCCCC/C=C/[C@@H](O)[C@H](COP(=O)([O-])OCC[N+](C)(C)C)NC(=O)CCCCc1ccc2n1[B-](F)(F)[N+]1=C(C)C=C(C)C1=C2` [Sphingomyelin, N-(4,4-difluoro-5,7-dimethyl-4-bora-3a,4a-diaza-s-indacene-3-pentanoyl)sphingosyl phosphocholine] was tested, and the “Labelling (staining/uptake) of cells” value [14] was “(x)- very bad”, the “Labelling (staining/uptake) of cells” value [8] was “x very weak” and the “Labelling (staining/uptake) of cells” value [9] was “✓”. For the same molecule, the “Labelling (staining/uptake) of cells” value [12] was “✓”.
